Entries after “also recorded” stand apart in the source; their conditions may differ.
Experiments:
[1] = system: breast adenocarcinoma SKBr3 cells; test: Metabolic activity by MTT, SKBr3; assay type: cell-based; settings: 10 μM; by 48 hours and throughout a 96-hours interval
Procedure: (§1) Modulation of cell viability was determined by MTT (Kang et al., “Regulation of tumor cell mitochondrial homeostasis by an organelle-specific Hsp90 chaperone network,” Cell, 131:257-270 (2007)). For determination of apoptosis, cells were analyzed for caspase activity (DEVDase activity) and plasma membrane integrity (propidium iodide) using CaspaTag (Intergen, Burlington, Mass.), by multiparametric flow cytometry (Kang et al., “Regulation of tumor cell mitochondrial homeostasis by an organelle-specific Hsp90 chaperone network,” Cell, 131:257-270 (2007)).

tumor mitochondria = test: Cytochrome c release from drug-treated isolated tumor mitochondria; assay type: biochemical
Procedure: Tumor cell types were treated with controls or the various Hsp90 antagonists, and cytosolic extracts were harvested at increasing time intervals between 5-30 minutes and analyzed by Western blotting. For experiments in a cell-free system, purified mitochondria (20 μg) were suspended in 500 μl of SB buffer (0.2 M sucrose, 10 mM Tris-MOPS, pH 7.4, 5 mM succinate, 1 mM sodium phosphate, 10 μM EGTA-Tris, and 2 μM rotenone). […] At the end of each incubation reaction, mitochondria and supernatants were separated by centrifugation at 6,000×g for 10 minutes, and analyzed by Western blotting.
(§2) The fluorescence intensity after treatment with 2 mM CaCl2 corresponded to a fully depolarized state. Alternatively, H460 cells were labeled with the fluorescent dye JC-1 (Molecular Probes), and analyzed for changes in red/green (F1-2/F1-1) fluorescence ratio after treatment with the various agents, by multiparametric flow cytometry. Cytochrome c content in pellets or supernatants of drug-treated isolated mitochondria was determined by Western blotting.

[2] = system: H460 lung adenocarcinoma xenograft tumors; test: Xenograft tumor growth, H460; assay type: in vivo, mice; settings: i.p.; G4 and 17-AAG 2-3 mg/kg twice daily, G1 30-50 mg/Kg daily, TPP 10 mg/Kg daily
Procedure: To create the models used in this example, HL60 (10×10^6) or H460 (4×10^6) cells suspended in sterile PBS (200 μl) were injected subcutaneously into both flanks of 10 week-old CB17 SCID/beige (Taconic Farms) immunocompromised female mice. Alternatively, MDA-MB-231 cells (5×10^6) suspended in 200 μl of 50% Matrigel (BD Biosciences) were used for subcutaneous injection in CB17 SCID/beige mice. When superficial tumors reached volumes of 100-150 mm^3, animals were randomized in two groups (2 tumors/mouse, 3 animals/group), and treated with vehicle (DMSO) or Gamitrinib dissolved in 20% Cremophor EL (Sigma) in PBS by intraperitoneal (i.p.) injection. Gamitrinib-G4 was used as sterile i.p. injections with the following schedules: HL60 xenografts, 2 mg/Kg twice daily; H460 xenografts, 2 mg/kg twice daily for d 0, 2.5 mg/kg twice daily for d 1, 3.0 mg/kg twice daily for the duration of treatment; MDA-MB-231 xenografts, 2 mg/Kg twice daily for d 0-2, 2.5 mg/Kg twice daily for d 3-5, and 3 mg/Kg twice daily throughout the rest of the treatment. 17-AAG was dissolved in 20% Cremophor EL and used as systemic i.p. injections with the same dose-escalating regimen as Gamitrinib-G4 in H460 xenograft studies. Gamitrinib-G1 was used with following schedules: 30 mg/Kg daily (d 0-2), and 50 mg/Kg daily for the rest of treatment. Gamitrinib-TPP was used as i.p. injections at 10 mg/Kg daily throughout the duration of the experiment. Tumor measurements were taken daily with a caliper, and tumor volume was calculated with the formula ([length in millimeters]×[width in millimeters]^2)/2. Mice in the various treatment groups were weighed at the beginning and at the end of each experiment.

Raji cells = test: Mitochondrial membrane potential in JC-1-loaded cells (flow cytometry); assay type: cell-based, human; settings: within five minutes of addition
Procedure: Raji cells were treated with Shepherdin or control scrambled peptidomimetic (100 μM) or 17-AAG (5 μM), loaded with the mitochondrial membrane potential-sensitive fluorescent dye JC-1, and analyzed for changes in green/red fluorescence ratio by flow cytometry. For experiments in a cell-free system, purified mitochondria isolated from primary normal cells, various tumor cells types, or normal mouse organs were suspended in SB buffer. […] For these experiments, TMRM-loaded mitochondria in SB buffer were allowed to reach stable fluorescence, which was set as fully polarized state (maximum membrane potential). The fluorescence intensity after treatment with 2 mM CaCl2 was set as minimum membrane potential (fully depolarized state). Changes in fluorescence intensity after each treatment were plotted as a ratio between maximum and minimum membrane potential.

tumor cells = test: Cell viability by MTT, tumor cell types; assay type: cell-based
SKBr3 cells = test: Dead cells by Trypan blue staining, SKBr3; assay type: cell-based; settings: 10 μM
[3] = system: Akt, Chk1 and Hsp70 in HeLa cells; test: Hsp90 client protein and Hsp70 levels in treated cells (Western blotting); assay type: cell-based, human; settings: 5 μM for 24 hours
Procedure: In other experiments, chaperone-dependent GST-Chk1 reconstitution was determined as described previously (Arlander et al., “Chaperoning checkpoint kinase 1 (Chk1), an Hsp90 client, with purified chaperones,” J Biol Chem, 281:2989-2998 (2006)). Briefly, each sample contained 0.7 μg of resin-bound GST-Chk1 (residues 1-265), 1 μg of purified human Hsp90α, and the following amounts of other purified chaperone proteins: 10 μg Hsp70, 2 μg Hdj1, 2 μg p50^cdc37, 0.06 units CK2, 2.5 μg p60^Hop. Optical densities due to Chk1-dependent phosphorylation of Cdc25 in the presence and absence of Gamitrinib or 17-AAG were determined and plotted as fold activation above the sample lacking added chaperone proteins. In some experiments, HeLa cells were treated with Gamitrinibs (G1-G4) or 17-AAG (5 μM) for 24 hours, and isolated extracts were analyzed for modulation of Akt or Hsp70 expression, by Western blotting

[4] = system: isolated tumor mitochondria; test: Inner membrane potential of TMRM-loaded tumor mitochondria; assay type: biochemical
Procedure: as §2

HeLa cell mitochondria = test: Cytochrome c and Smac release from isolated tumor mitochondria (Western blotting); assay type: biochemical, human
Procedure: Tumor cell types were treated with controls or the various Hsp90 antagonists, and cytosolic extracts were harvested at increasing time intervals between 5-30 minutes and analyzed by Western blotting. For experiments in a cell-free system, purified mitochondria (20 μg) were suspended in 500 μl of SB buffer (0.2 M sucrose, 10 mM Tris-MOPS, pH 7.4, 5 mM succinate, 1 mM sodium phosphate, 10 μM EGTA-Tris, and 2 μM rotenone). Samples were treated with controls or the various Hsp90 antagonists for 20 minutes at 22° C. At the end of each incubation reaction, mitochondria and supernatants were separated by centrifugation at 6,000×g for 10 minutes, and analyzed by Western blotting.

HeLa cells = test: Cytochrome c release into the cytosol of treated tumor cells (Western blotting); assay type: cell-based, human
[5] = system: lung adenocarcinoma H460 cells; test: Cell viability by MTT, H460; assay type: cell-based, human
Procedure: as §1

## C=CCNC1=C2C[C@@H](C)C[C@H](OC)[C@H](O)[C@@H](C)/C=C(\C)[C@H](OC(N)=O)[C@@H](OC)/C=C\C=C(/C)C(=O)NC(=CC1=O)C2=O [Gamitrinib 17-AAG, 17-allylamino-demethoxygeldamycin]
[1]
  metabolic activity: comparably reduced metabolic activity
Tumor mitochondria; 20 minutes
  discharge of mitochondrial cytochrome c: ineffective
Tumor mitochondria; 3 hours (FIG. 16D)
  cytochrome c release from mitochondria: had no effect on cytochrome c release
[2]
  tumor growth: had no effect on human lung cancer growth in mice
Raji cells
  mitochondrial membrane potential in tumor cells: did not affect mitochondrial membrane potential in HeLa cells
Tumor cells; 1 hour exposure, MTT
  tumor cell viability / killing: had no effect on tumor cell viability within the same kinetics
Tumor cells; prolonged exposure, 24 hours after treatment
  tumor cell killing: partial cell killing; also recorded: modest anticancer activity
SKBr3 cells
  tumor cell killing (dead cells): most SKBr3 cells treated with 17-AAG were still alive after 72 hours
[3]
  expression of the chaperone Hsp70: increased expression of the chaperone Hsp70
  levels of client proteins Chk1 and Akt: destabilization of client proteins, Chk1 and Akt
[4]
  mitochondrial inner membrane potential: did not affect mitochondrial membrane potential
HeLa cell mitochondria; HeLa cell mitochondria
  cytochrome c or Smac release from isolated tumor mitochondria: did not induce cytochrome c or Smac release; also recorded: had no effect on mitochondrial integrity
HeLa cell mitochondria; high concentrations (20 μM)
  discharge of mitochondrial cytochrome c and Smac in the supernatant: a small discharge of mitochondrial cytochrome c, but not Smac
HeLa cells
  cytochrome c release into the cytosol: had no effect on cytochrome c release over a wide range of concentrations
[5]; 3 hour exposure
  cell viability: had no effect
[5]; 24 hours
  cell viability: partial reduction in cell viability or cell proliferation
